Source: US20260248087A1, “GENERATING DOUBLED HAPLOID PLANTS” (Syngenta Crop Protection AG, priority 2023, published 2026)

How the values were obtained:
GST27 = GST27 induction, metcamifen pre-treatment of maize ears; format: cell-based
Protocol: For the examples below, GST27 was used as a quick indicator for treatment effectiveness.
The effect of temperature was tested independently by comparing 6° C. and 28° C. for both 3 and 5 days with 150 PAR light.
Maize ears were pre-treated with metcamifen prior to embryo isolation and before moving the embryos to colchicine-containing doubling media. In all experiments, doubling media is semi-solid, thickened with Gelzan, unless liquid media is specified. Two methods of delivering the safener at concentrations of 100 and 1000 mg/L were tested. The first method wrapped the ear in a paper towel that was wet with formulated metcamifen. The second method used a sprayer to deliver the formulated metcamifen onto the ear surface at 6° C. with 150 PAR light. GST27 was measured after metcamifen pre-treatment and again at the end of colchicine treatment. A low level of GST27 was induced (<10 ng/mg Total Soluble Protein (TSP)) at the end of the ear pre-treatment. Following ear pre-treatment, embryos were isolated and treated with colchicine for 48 hours.
The addition of 0.5% Tween20 in the formulation with metcamifen at both 100 and 1000 mg/L was tested in combination with spraying corn ears as a pre-treatment prior to embryo isolation.

isolated embryos [1] = test: Potted rate after metcamifen co-treatment during colchicine doubling; format: in vivo, maize; conditions: for Potted Rate Mean: co-treatment with colchicine
Protocol: (§1) As used herein, the term “potted rate” or “potting rate” refers to the percent of germinated embryos successfully transferred to soil from total treated haploid embryos. The “potted rate” is used as an indication of plant health in monitoring the success of recovery and growth after treatment of haploids. As used herein, the term “transplant rate” refers to the survival of healthy plants after embryos were germinated and transferred to soil.
Isolated embryos were treated with metcamifen during colchicine doubling (also referred to as co-treatment). Metcamifen was added in the colchicine co-treatment media (a.k.a. doubling media) as a formulation at concentrations of 0, 200, 400, 800, 1200 mg/L. Metcamifen concentrations tested for a 24-hour duration ranged from 0-1000 mg/L. Metcamifen concentrations tested for a 48-hour condition ranged from 0-1200 mg/L. Three to four genotypes representing two heterotic groups were tested.
Initial testing on three genotypes included co-treatment of metcamifen and colchicine in Gelzan media at 28° C. with 150 PAR light at concentrations of 0, 200, and 1000 mg/L to identify a range of working concentrations. The 200 and 1000 mg/L concentrations induced similar GST27 expression levels for both the 24- and 48-hour durations. The resulting induction was higher (400 ng/mg TSP GST27) than recorded with pre-treatments of ears or isolated embryos. […] Metcamifen co-treatment of isolated embryos optimization continued by testing levels of 0, 400, 600, and 800 mg/L for 24 and 48 hours with 4 genotypes across 2 heterotic groups. GST induction (ng/mg TSP) was measured after metcamifen co-treatment. […] The percent potted rate after metcamifen co-treatment was similar for both time durations when sorted by genotype or heterotic group.

isolated embryos [2] = test: Potting and transplant rate, thiamethoxam liquid media pre-treatment prior to colchicine doubling; format: in vivo, maize
From the text: as §1
TMX pre-treatment application to isolated embryos prior to colchicine doubling was done in 2 genotypes with replication. Isolated embryos were plated on filter paper and pre-treated with a formulation of TMX at concentrations ranging from 10-1000 mg/L in liquid media. The pre-treatments incubated for 0.5 to 24 hours. Following the pre-treatment, embryos were treated with colchicine for chromosome doubling and plant regeneration. The effect on potting rate and transplant rate were evaluated (see Table 10).
In a follow-up experiment, the liquid pre-treatment was tested at 30 minute and 1-hour durations to determine if a shorter duration would result in better potting and transplant rates than observed in the 1 hour treatments shown in Table 10. These were performed in the same manner as described above, in triplicate.

doubled haploids = test: Potting rate, thiamethoxam post-treatment during germination; format: in vivo, maize; conditions: 14-21 days
From the text: as §1
TMX was applied to doubled haploids by adding it to the germination media during the germination process. TMX was tested in 3 genotypes, in triplicate, with concentrations ranging from […], and the post-treatments incubated for 14 to 21 days (the normal duration of the regeneration period before transplant). The effect on potting rate was evaluated (see Table 12); no plants were advanced for transplant rate assessments due to poor germination.

[3] = initial testing, 200 and 1000 mg/L, 24-hour co-treatment
[4] = Table 10: liquid media pre-treatment, TMX 10 mg/L, 1 hr
[5] = Table 10: liquid media pre-treatment, TMX 10 mg/L, 24 hr
[6] = Table 10: liquid media pre-treatment, TMX 100 mg/L, 1 hr
[7] = Table 10: liquid media pre-treatment, TMX 100 mg/L, 24 hr
[8] = Table 10: liquid media pre-treatment, TMX 1000 mg/L, 1 hr
[9] = Table 10: liquid media pre-treatment, TMX 1000 mg/L, 24 hr
[10] = Table 11: liquid pre-treatment, TMX 100 mg/L, 30 min
[11] = Table 11: liquid pre-treatment, TMX 100 mg/L, 1 hr
[12] = Table 11: liquid pre-treatment, TMX 1000 mg/L, 30 min
[13] = Table 11: liquid pre-treatment, TMX 1000 mg/L, 1 hr

CNC(=O)Nc1ccc(S(=O)(=O)NC(=O)c2ccccc2OC)cc1 [Metcamifen, metcamifen]
GST27 induced at the end of the ear pre-treatment (GST27; ear pre-treatment, 100 and 1000 mg/L, 6° C.): < 10 ng/mg Total Soluble Protein (TSP) | GST27 induced by ear pre-treatment (GST27; ear pre-treatment, as restated in Example 3): less than 10 ng/ml of TSP | GST27 before doubling, Mean (GST27; ear pre-treatment, metcamifen 100 mg/L, 3 days, 6° C.): 4 ng/mg of TSP | GST27 after doubling, Mean (GST27; ear pre-treatment, metcamifen 100 mg/L, 3 days, 6° C., then colchicine 48 hours): 156 ng/mg of TSP | GST27 before doubling, Mean (GST27; ear pre-treatment, metcamifen 100 mg/L, 5 days, 6° C.): 2 ng/mg of TSP | GST27 after doubling, Mean (GST27; ear pre-treatment, metcamifen 100 mg/L, 5 days, 6° C., then colchicine 48 hours): 245 ng/mg of TSP | GST27 before doubling, Mean (GST27; ear pre-treatment, metcamifen 1000 mg/L, 3 days, 6° C.): 3 ng/mg of TSP | GST27 after doubling, Mean (GST27; ear pre-treatment, metcamifen 1000 mg/L, 3 days, 6° C., then colchicine 48 hours): 178 ng/mg of TSP | GST27 before doubling, Mean (GST27; ear pre-treatment, metcamifen 1000 mg/L, 5 days, 6° C.): 4 ng/mg of TSP | GST27 after doubling, Mean (GST27; ear pre-treatment, metcamifen 1000 mg/L, 5 days, 6° C., then colchicine 48 hours): 303 ng/mg of TSP | GST27 induction at the end of the colchicine treatment (GST27; ear pre-treatment, then colchicine 48 hours): increased but insignificant | GST27 expression level with addition of 0.5% Tween20 (GST27; spraying corn ears, 100 and 1000 mg/L, over 4 days): did not improve | Potted Rate Mean (isolated embryos [1]; 200 mg/L, 24 hours): 84% | Potted Rate Mean (isolated embryos [1]; 400 mg/L, 24 hours): 84% | Potted Rate Mean (isolated embryos [1]; 400 mg/L, 48 hours): 14% | Potted Rate Mean (isolated embryos [1]; 800 mg/L, 24 hours): 92% | Potted Rate Mean (isolated embryos [1]; 800 mg/L, 48 hours): 73% | Potted Rate Mean (isolated embryos [1]; 1200 mg/L, 48 hours): 71% | percent potted rate versus 1000 mg/L and control (isolated embryos [1]; initial testing, 200 mg/L, 48-hour co-treatment): increased the percent potted rate | doubled haploid ears produced versus the control (isolated embryos [1]; [3]): increase in the doubled haploid ears produced | percent potted rate versus the control (isolated embryos [1]; [3]): increased the percent potted rate

CN1COCN(Cc2cnc(Cl)s2)/C1=N\[N+](=O)[O-] [TMX, thiamethoxam]
Potting Rate Mean (isolated embryos [2]; [4]): 55% | Transplant Rate Mean (isolated embryos [2]; [4]): 51% | Potting Rate Mean (isolated embryos [2]; [5]): 7% | Transplant Rate Mean (isolated embryos [2]; [5]): 7% | Potting Rate Mean (isolated embryos [2]; [6]): 38% | Transplant Rate Mean (isolated embryos [2]; [6]): 37% | Potting Rate Mean (isolated embryos [2]; [7]): 15% | Transplant Rate Mean (isolated embryos [2]; [7]): 15% | Potting Rate Mean (isolated embryos [2]; [8]): 58% | Transplant Rate Mean (isolated embryos [2]; [8]): 55% | Potting Rate Mean (isolated embryos [2]; [9]): 11% | Transplant Rate Mean (isolated embryos [2]; [9]): 11% | Potting Rate Mean (isolated embryos [2]; [10]): 68% | Transplant Rate Mean (isolated embryos [2]; [10]): 54% | Potting Rate Mean (isolated embryos [2]; [11]): 77% | Transplant Rate Mean (isolated embryos [2]; [11]): 66% | Potting Rate Mean (isolated embryos [2]; [12]): 51% | Transplant Rate Mean (isolated embryos [2]; [12]): 42% | Potting Rate Mean (isolated embryos [2]; [13]): 74% | Transplant Rate Mean (isolated embryos [2]; [13]): 56% | Potting Rate Mean (doubled haploids; TMX 0.5 g/L): 53% | Potting Rate Mean (doubled haploids; TMX 1 g/L): 50% | Potting Rate Mean (doubled haploids; TMX 1.5 g/L): 27% | Potting Rate Mean (doubled haploids; TMX 5 g/L): 3% | Potting Rate Mean (doubled haploids; TMX 12 g/L): 0%
